pIC50: −log10 of the molar value.

The assay deals with T1, human TRPV4 (Homo sapiens, UniProt Q9HBA0).
T1 construct: expressed in transfected cells; host or cells: BHK/AC9 cells transduced with BacMam virus
T1 sequence (Q9HBA0 whole entry): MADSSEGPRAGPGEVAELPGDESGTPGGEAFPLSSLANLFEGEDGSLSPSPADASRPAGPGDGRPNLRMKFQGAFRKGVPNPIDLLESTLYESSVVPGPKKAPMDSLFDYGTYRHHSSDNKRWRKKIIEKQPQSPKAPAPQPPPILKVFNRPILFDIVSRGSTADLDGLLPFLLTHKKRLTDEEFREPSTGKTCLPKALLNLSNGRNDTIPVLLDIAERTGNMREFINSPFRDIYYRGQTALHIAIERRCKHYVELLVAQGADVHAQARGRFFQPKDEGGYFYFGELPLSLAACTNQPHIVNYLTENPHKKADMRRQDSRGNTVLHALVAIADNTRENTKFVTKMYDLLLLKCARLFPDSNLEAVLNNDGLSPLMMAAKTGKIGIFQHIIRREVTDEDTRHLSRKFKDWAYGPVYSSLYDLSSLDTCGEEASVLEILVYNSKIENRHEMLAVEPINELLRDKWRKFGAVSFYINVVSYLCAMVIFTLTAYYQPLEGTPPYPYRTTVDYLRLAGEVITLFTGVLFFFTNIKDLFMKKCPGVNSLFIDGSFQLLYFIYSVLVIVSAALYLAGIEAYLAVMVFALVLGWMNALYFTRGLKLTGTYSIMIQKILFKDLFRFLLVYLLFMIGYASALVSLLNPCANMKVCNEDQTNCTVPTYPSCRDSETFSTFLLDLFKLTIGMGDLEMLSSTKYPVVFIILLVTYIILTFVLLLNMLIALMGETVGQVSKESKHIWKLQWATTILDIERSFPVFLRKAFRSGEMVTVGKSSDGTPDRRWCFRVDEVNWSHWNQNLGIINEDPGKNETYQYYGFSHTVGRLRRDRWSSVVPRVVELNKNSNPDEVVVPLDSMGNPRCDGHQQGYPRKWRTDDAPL
The experiment in a line: FLIPR assay for hTRPV4 expressed in BHK cells: inhibition of Agonist Compound-induced calcium signal. The format is cell-based. The following applies: hTRPV4 in BHK/AC9 cells, FLIPR calcium signal, agonist at EC80; reported as range class; read-out: IC50. The method, then: FLIPR Assay for hTRPV4 Expressed in BHK Cells:
TRPV4 channel activation results in an influx of divalent and monovalent cations including calcium. The resulting changes in intracellular calcium were monitored using a calcium specific fluorescent dye Fluo-4 (MDS Analytical Technologies). BHK/AC9 cells transduced with BacMam virus expressing the human TRPV4 gene at a MOI of 78 were plated in a 384 well poly-D lysine coated plate (15,000 cells/well in 50 μL culture medium containing DMEM/F12 with 15 mM HEPES, 10% FBS, 1% Penicillin-Streptomycin and 1% L-glutamine). Cells were incubated for 24 hours at 37° C. and 5% CO2. Culture medium was then aspirated using a Tecan plate-washer and replaced with 20 μL/well of dye loading buffer: HBSS, 500 μM Brilliant Black (MDS Analytical Technologies), and 2 μM Fluo-4 AM. Dye loaded plates were then incubated in the dark at room temperature for 1-1.5 hours.
In general, pIC50 refers to −log10 of the IC50, conventionally taken in molar units. Turning to `N#Cc1cc(C(F)(F)F)ccc1S(=O)(=O)N1C[C@H](Oc2ccc(F)c(F)c2F)[C@](O)(CO)C1` [Example 28, 2-(((3R,4S)-3-hydroxy-3-(hydroxymethyl)-4-(2,3,4-trifluorophenoxy)pyrrolidin-1-yl)sulfonyl)-5-(trifluoromethyl)benzonitrile], the pIC50 was 7.00 to 8.00.
On to `N#Cc1ccc(O[C@H]2CN(S(=O)(=O)c3ccc(C(F)(F)F)cc3C#N)C[C@@]2(O)CO)cc1` [Example 29, 2-(((3R,4S)-4-(4-cyanophenoxy)-3-hydroxy-3-(hydroxymethyl)pyrrolidin-1-yl)sulfonyl)-5-(trifluoromethyl)benzonitrile], for which the negative logarithm of the IC50 (pIC50) is 8.00 to 10.00.
For the compound `N#Cc1cc(C(F)(F)F)ccc1S(=O)(=O)N1C[C@H](Oc2ccc(Cl)c(F)c2)[C@](O)(CO)C1` [Example 30, 2-(((3R,4S)-4-(4-chloro-3-fluorophenoxy)-3-hydroxy-3-(hydroxymethyl)pyrrolidin-1-yl)sulfonyl)-5-(trifluoromethyl)benzonitrile], the pIC50 was 8.00 to 10.00.
The result for `N#Cc1cc(C(F)(F)F)ccc1S(=O)(=O)N1C[C@H](Oc2ccc(C(F)(F)F)c(F)c2)[C@](O)(CO)C1` [Example 31, 2-(((3R,4S)-4-(3-fluoro-4-(trifluoromethyl)phenoxy)-3-hydroxy-3-(hydroxymethyl)pyrrolidin-1-yl)sulfonyl)-5-(trifluoromethyl)benzonitrile] reads 8.00 to 10.00; that for `N#CCc1ccc(O[C@H]2CN(S(=O)(=O)c3ccc(C(F)(F)F)cc3C#N)C[C@@]2(O)CO)cc1` [Example 32, 2-(((3R,4S)-4-(4-(cyanomethyl)phenoxy)-3-hydroxy-3-(hydroxymethyl)pyrrolidin-1-yl)sulfonyl)-5-(trifluoromethyl)benzonitrile], 7.00 to 8.00.
For `N#CCc1cccc(O[C@H]2CN(S(=O)(=O)c3ccc(C(F)(F)F)cc3C#N)C[C@@]2(O)CO)c1` [Example 33, 2-(((3R,4S)-4-(3-(cyanomethyl)phenoxy)-3-hydroxy-3-(hydroxymethyl)pyrrolidin-1-yl)sulfonyl)-5-(trifluoromethyl)benzonitrile], the pIC50 was 7.00 to 8.00.
The result for `COC(=O)c1cc(C#N)ccc1O[C@H]1CN(S(=O)(=O)c2ccc(C(F)(F)F)cc2C#N)C[C@@]1(O)CO` [Example 34, methyl 5-cyano-2-(((3S,4R)-1-((2-cyano-4-(trifluoromethyl)phenyl)sulfonyl)-4-hydroxy-4-(hydroxymethyl)pyrrolidin-3-yl)oxy)benzoate] reads 8.00 to 10.00.
The result for `O=S(=O)(c1ccc(Cl)cc1Cl)N1C[C@H](Oc2ccc(C(F)(F)F)nc2)[C@](O)(CO)C1` [Example 35, (3R,4S)-1-((2,4-dichlorophenyl)sulfonyl)-3-(hydroxymethyl)-4-((6-(trifluoromethyl)pyridin-3-yl)oxy)pyrrolidin-3-ol] reads 7.00 to 8.00; that for `N#Cc1ncc(O[C@H]2CN(S(=O)(=O)c3ccc(Cl)cc3Cl)C[C@@]2(O)CO)cc1F` [Example 36, 5-(((3S,4R)-1-((2,4-dichlorophenyl)sulfonyl)-4-hydroxy-4-(hydroxymethyl)pyrrolidin-3-yl)oxy)-3-fluoropicolinonitrile], 8.00 to 10.00.
Regarding `N#Cc1cc(C(F)(F)F)ccc1S(=O)(=O)N1C[C@H](Oc2ccc(C(F)(F)F)cc2)[C@](O)(CO)C1` [Example 37, 2-(((3R,4S)-3-hydroxy-3-(hydroxymethyl)-4-(4-(trifluoromethyl)phenoxy)pyrrolidin-1-yl)sulfonyl)-5-(trifluoromethyl)benzonitrile], the pIC50 is 8.00 to 10.00.
On to `N#Cc1cc(C(F)(F)F)ccc1S(=O)(=O)N1C[C@H](Oc2ccc(F)c(C(F)(F)F)c2)[C@](O)(CO)C1` [Example 38, 2-(((3R,4S)-4-(4-fluoro-3-(trifluoromethyl)phenoxy)-3-hydroxy-3-(hydroxymethyl)pyrrolidin-1-yl)sulfonyl)-5-(trifluoromethyl)benzonitrile], for which the pIC50 was 7.00 to 8.00.
Consider `N#Cc1cc(C(F)(F)F)ccc1S(=O)(=O)N1C[C@H](Oc2ccc(Cl)c(Cl)c2)[C@](O)(CO)C1` [Example 39, 2-(((3R,4S)-4-(3,4-dichlorophenoxy)-3-hydroxy-3-(hydroxymethyl)pyrrolidin-1-yl)sulfonyl)-5-(trifluoromethyl)benzonitrile], for which the pIC50 was 7.00 to 8.00.
`N#Cc1cc(C(F)(F)F)ccc1S(=O)(=O)N1C[C@H](Oc2ccc(OC(F)(F)F)c(F)c2)[C@](O)(CO)C1` [Example 40, 2-(((3R,4S)-4-(3-fluoro-4-(trifluoromethoxy)phenoxy)-3-hydroxy-3-(hydroxymethyl)pyrrolidin-1-yl)sulfonyl)-5-(trifluoromethyl)benzonitrile]: the negative logarithm of the IC50 (pIC50) was 8.00 to 10.00.
The result for `N#Cc1cc(C(F)(F)F)ccc1S(=O)(=O)N1C[C@H](Oc2ccc(F)c(Cl)c2)[C@](O)(CO)C1` [Example 41, 2-(((3R,4S)-4-(3-chloro-4-fluorophenoxy)-3-hydroxy-3-(hydroxymethyl)pyrrolidin-1-yl)sulfonyl)-5-(trifluoromethyl)benzonitrile] reads 7.00 to 8.00.
Turning to `N#Cc1cc(C(F)(F)F)ccc1S(=O)(=O)N1C[C@H](Oc2ccc(C(F)(F)F)nc2)[C@](O)(CO)C1` [Example 42, 2-(((3R,4S)-3-hydroxy-3-(hydroxymethyl)-4-((6-(trifluoromethyl)pyridin-3-yl)oxy)pyrrolidin-1-yl)sulfonyl)-5-(trifluoromethyl)benzonitrile], the pIC50 is 7.00 to 8.00.
The result for `COc1ccc(O[C@H]2CN(S(=O)(=O)c3ccc(C(F)(F)F)cc3C#N)C[C@@]2(O)CO)cc1F` [Example 43, 2-(((3R,4S)-4-(3-fluoro-4-methoxyphenoxy)-3-hydroxy-3-(hydroxymethyl)pyrrolidin-1-yl)sulfonyl)-5-(trifluoromethyl)benzonitrile] reads 7.00 to 8.00; that for `CC(C)Oc1cc(C#N)ccc1O[C@H]1CN(S(=O)(=O)c2ccc(C(F)(F)F)cc2C#N)C[C@@]1(O)CO` [Example 44, 2-(((3R,4S)-4-(4-cyano-2-isopropoxy-phenoxy)-3-hydroxy-3-(hydroxymethyl)pyrrolidin-1-yl)sulfonyl)-5-(trifluoromethyl)benzonitrile], 8.00 to 10.00; that for `N#Cc1ccc(O[C@H]2CN(S(=O)(=O)c3ccc(C(F)(F)F)cc3C#N)C[C@@]2(O)CO)c(OC2CC2)c1` [Example 45, 2-(((3R,4S)-4-(4-cyano-2-cyclopropoxyphenoxy)-3-hydroxy-3-(hydroxymethyl)pyrrolidin-1-yl)sulfonyl)-5-(trifluoromethyl)benzonitrile], 8.00 to 10.00.
With `N#Cc1cc(C(F)(F)F)ccc1S(=O)(=O)N1C[C@H](Oc2ccccc2)[C@](O)(CO)C1` [Example 46, 2-(((3R,4S)-3-hydroxy-3-(hydroxymethyl)-4-phenoxypyrrolidin-1-yl)sulfonyl)-5-(trifluoromethyl)benzonitrile], the negative logarithm of the IC50 (pIC50) is 7.00 to 8.00.
The result for `N#Cc1cc(C(F)(F)F)ccc1S(=O)(=O)N1C[C@H](Oc2ccc(F)cc2)[C@](O)(CO)C1` [Example 47, 2-(((3R,4S)-4-(4-fluorophenoxy)-3-hydroxy-3-(hydroxymethyl)pyrrolidin-1-yl)sulfonyl)-5-(trifluoromethyl)benzonitrile] reads 7.00 to 8.00; that for `COc1cc(Cl)ccc1O[C@H]1CN(S(=O)(=O)c2ccc(C(F)(F)F)cc2C#N)C[C@@]1(O)CO` [Example 48, 2-(((3R,4S)-4-(4-chloro-2-methoxyphenoxy)-3-hydroxy-3-(hydroxymethyl)pyrrolidin-1-yl)sulfonyl)-5-(trifluoromethyl)benzonitrile], 7.00 to 8.00.
The result for `N#Cc1ccc(O[C@H]2CN(S(=O)(=O)c3ccc(C(F)(F)F)cc3Cl)C[C@@]2(O)CO)cc1` [Example 49, 4-(((3S,4R)-1-((2-chloro-4-(trifluoromethyl)phenyl)sulfonyl)-4-hydroxy-4-(hydroxymethyl)pyrrolidin-3-yl)oxy)benzonitrile] reads 7.00 to 8.00; that for `N#Cc1cc(C(F)(F)F)ccc1S(=O)(=O)N1C[C@H](Oc2ccc(OC(F)(F)F)cc2)[C@](O)(CO)C1` [Example 50, 2-(((3R,4S)-3-hydroxy-3-(hydroxymethyl)-4-(4-(trifluoromethoxy)phenoxy)pyrrolidin-1-yl)sulfonyl)-5-(trifluoromethyl)benzonitrile], 8.00 to 10.00; that for `Cc1ccc(O[C@H]2CN(S(=O)(=O)c3ccc(C(F)(F)F)cc3C#N)C[C@@]2(O)CO)cc1` [Example 51, 2-(((3R,4S)-3-hydroxy-3-(hydroxymethyl)-4-(p-tolyloxy)pyrrolidin-1-yl)sulfonyl)-5-(trifluoromethyl)benzonitrile], 7.00 to 8.00.
Turning to `COc1ccc(O[C@H]2CN(S(=O)(=O)c3ccc(C(F)(F)F)cc3C#N)C[C@@]2(O)CO)cc1` [Example 52, 2-(((3R,4S)-3-hydroxy-3-(hydroxymethyl)-4-(4-methoxyphenoxy)pyrrolidin-1-yl)sulfonyl)-5-(trifluoromethyl)benzonitrile], the pIC50 is 7.00 to 8.00.
The result for `N#Cc1cccc(O[C@H]2CN(S(=O)(=O)c3ccc(C(F)(F)F)cc3C#N)C[C@@]2(O)CO)c1` [Example 53, 2-(((3R,4S)-4-(3-cyanophenoxy)-3-hydroxy-3-(hydroxymethyl)pyrrolidin-1-yl)sulfonyl)-5-(trifluoromethyl)benzonitrile] reads 7.00 to 8.00; that for `COc1ccc(C#N)cc1O[C@H]1CN(S(=O)(=O)c2ccc(C(F)(F)F)cc2C#N)C[C@@]1(O)CO` [Example 54, 2-(((3R,4S)-4-(5-cyano-2-methoxyphenoxy)-3-hydroxy-3-(hydroxymethyl)pyrrolidin-1-yl)sulfonyl)-5-(trifluoromethyl)benzonitrile], 7.00 to 8.00.
